How the values were obtained:
[1] = tested on: activated macrophages and T cells; test: Secretion of IL-12 and IFN-γ by activated macrophages and T cells in vitro (ELISA); assay type: cell-based; details: FIG. 1B
IkB = IkB phosphorylation in macrophages after CpG (Western blot); assay type: in vivo; details: C57BL/6 mice, 5 nMol CpG i.v., CGS21680 2 mg/kg, macrophages after 20 minutes
Protocol: After 20 minutes, macrophages were isolated as described above, and subjected to Western blot analysis using Ab that recognize IkB and Ab can distinguish the phosphorylated form of IkB (IkB-P).

[2] = tested on: anti-TNP-specific immunoglobulins; test: TNP-KLH vaccination, serum anti-TNP-specific immunoglobulins (ELISA); assay type: in vivo, mice; details: for IgG2: day 7, co-injected with TNP-KLH; for serum levels of anti-TNP-specific IgG1: seven days, versus control
Protocol: The antigen was prepared for injection as follows. DNP-KLH (1.0 mg/ml, Biosearch Technologies, Inc. catalog no. T-5060-5) was prepared in PBS (e.g. dissolve 4.0 mg of purified DNP-KLH in PBS and raise volume to 4.0 ml). Complete Freund's Adjuvant (2.0 ml, CFA; Sigma F-5881) was vortexed and mixed with 2.0 ml of the TNP-KLH solution at 4° C. The CFA/KLH mixture was drawn into a 3-ml glass syringe with a 19-gauge needle. The syringe was attached to a double-ended locking hub connector or a plastic 3-way stopcock. An empty 2-ml glass syringe was attached to the other end and the mixture forced back and forth from one end to the other repeatedly. When the mixture was white and homogeneous, the connector or stopcock was disconnected, a 25 gauge needle attached, and tested for emulsion by placing a drop on the surface of 50 ml of cold water in a 100-ml beaker. The drop should hold together; if not, repeat mixing. […] Samples of blood were obtained by retro-orbital bleeding at 7, 14, and 21 days after TNP-KLH and theophylline injection. Serum levels of anti-TNP-specific IgG1, IgG2a, IgG2b, IgG3, and IgM were estimated using an ELISA kit (Sigma) according to the manufacturer's instructions.

[3] = tested on: NF-kB-regulated pro-inflammatory cytokines (TNFα, IL-12p40); test: Cytokine mRNA in spleen of CpG-activated mice (RNase protection assay); assay type: in vivo; details: C57BL/6 mice, 10 mg/kg i.p. 15 minutes before CpG, FIGS. 8A and 8B
Protocol: Mutant (A2aR^−/−) or wild-type mice were injected (i.p.) with 20 nmol CpG oligonucleotide (5′-T*C*[…]*A*T*G*C*T-3′, asterisk means phosphorothioate. SEQ ID NO. 1). This toll-receptor activating CpG DNA preparation stimulates the immune system. After one hour, mRNA was extracted from spleenocytes and analyzed for cytokine gene expression using an RNase protection assay with commercial templates (mCK-2b and mCK-3b, Pharmingen, San Diego, Calif.).

B16 melanoma cells = test: B16 melanoma tumor growth; assay type: in vivo, mice; details: daily i.p., ZM241385 0.2 mg/mouse, caffeine 0.4 mg/mouse, start 28 days after tumor cells; FIG. 14
Excerpt: […] (immunocompromised nude mice; or immunocompetent C57BL/6 mice) were inoculated subcutaneously with B16 melanoma cells (American Type Culture Collection, Manassas, Va.), or B16-H2-Kd transfected tumor cells (increases the immunogenicity of the cells) on day zero to induce the formation of melanomas. The treatment with adenosine receptor antagonists started 28 days after injection of tumor cells, when the tumor reached 7-9 mm in diameter.
[…]. The delay in tumor growth was greater in immunocompetent C57BL/6 mice, and less so in immunocompromised nude mice. However, as the tumor increases in size, both antagonists slow down tumor growth even in immunocompromised animals. […] In addition, adenosine receptor antagonists appear to improve both anti-tumor immunity and preventing or decreasing angiogenesis.

CMS4 tumor cells = test: CMS4 lung tumors with antigen-specific CTL immunotherapy; assay type: in vivo; details: BALB/c mice, CMS4 i.v., CTL on day 10; ZM241385 10 mg/kg/day i.p. or caffeine 0.1% w/v in drinking water; FIGS. 12A-C
Excerpt: BALB/c mice were inoculated i.v. with CMS4 tumor cells (Methylcholanthrene-induced sarcoma, 2.5×10^5 cells) on day zero to induce the formation of lung tumors. […] The lung tumors were subsequently examined on days 17, day 18 and day 24, by sacrificing the mice and evaluating their lungs for the number and size of metastasis by visual inspection.

[4] = co-injected with TNP-KLH, about 1 mg/kg

SMILES: CCNC(=O)[C@H]1O[C@@H](n2cnc3c(N)nc(NCCc4ccc(CCC(=O)O)cc4)nc32)[C@H](O)[C@@H]1O [CGS21680]
- secretion of IFN-γ [1]: inhibited secretion
- secretion of IL-12 [1]: inhibited secretion
- phosphorylation of IkB (IkB): decreased or inhibited

SMILES: O=C(Cc1ccccc1)Nc1nc2ccc(Cl)cc2c2nc(-c3ccco3)nn12 [MRS1220]
- IgG2 [2]: improved
- serum levels of anti-TNP-specific IgG1 [2, 4]: markedly increased

SMILES: Nc1nc(NCCc2ccc(O)cc2)nc2nc(-c3ccco3)nn12 [ZM241385]
- mRNA expression of NF-kB-regulated pro-inflammatory cytokines [3]: higher expression of NF-kB-regulated pro-inflammatory cytokines
- tumor growth (B16 melanoma cells): tumor retardation that became significant after 3-7 days of treatment
- number of metastatic nodules in the lung (CMS4 tumor cells): decrease in the number of metastatic nodules
- IgG2 [2]: improved
- serum levels of anti-TNP-specific IgG1 [2, 4]: markedly increased

SMILES: Cn1c(=O)c2[nH]cnc2n(C)c1=O [theophylline]
- serum levels of anti-TNP-specific IgG1 ([2]; co-injected i.p. with TNP-KLH, FIG. 15): markedly increased
- serum levels of anti-TNP-specific IgG1 ([2]; co-injected subcutaneously with TNP-KLH): improvement of antibody production
- serum levels of anti-TNP-specific IgG1 ([2]; co-injected subcutaneously with TNP-KLH, listed as theophyllin): markedly increased

Source: patent US11471528B2, “Methods for using extracellular adenosine inhibitors and adenosine receptor inhibitors to enhance immune response and inflammation” (The Government of the United States of America as …, priority 2001, dated 2022)
